The target in the assay is CDK4 (Homo sapiens, UniProt P11802+Q16531). Nature of the assay: CDK4 percentage degradation in Calu-1 cells (Table 6). Conditions: 16 hours; for inhibition at 0.04 µM: 40 nM; for inhibition at 0.2 µM: 200 nM. The format is cell-based. Details: Cells that express cyclin D1-3 and CDK4/6 proteins were treated with heterobifunctional compounds; endogenous in cells; host or cells: Calu-1. Summed up:
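Calu-1 cells exposed to heterobifunctional compounds at 40 nM or 200 nM for 16 h. Cyclin D1 and CDK4 levels measured by Western blot of RIPA lysates (BCA-normalised loading), bands quantified by densitometry and expressed as percentage degradation.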

Sequence of CDK4 (P11802 2-303 limits assumed): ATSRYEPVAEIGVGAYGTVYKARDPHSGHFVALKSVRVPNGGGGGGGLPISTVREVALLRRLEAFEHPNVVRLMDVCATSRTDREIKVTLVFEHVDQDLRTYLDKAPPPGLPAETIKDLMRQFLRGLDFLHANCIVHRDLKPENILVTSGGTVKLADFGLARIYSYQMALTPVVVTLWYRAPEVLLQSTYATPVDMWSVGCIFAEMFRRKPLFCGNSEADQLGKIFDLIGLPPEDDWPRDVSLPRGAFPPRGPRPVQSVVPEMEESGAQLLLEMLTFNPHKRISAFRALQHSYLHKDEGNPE
Sequence of CDK4 (P24385 whole entry partner): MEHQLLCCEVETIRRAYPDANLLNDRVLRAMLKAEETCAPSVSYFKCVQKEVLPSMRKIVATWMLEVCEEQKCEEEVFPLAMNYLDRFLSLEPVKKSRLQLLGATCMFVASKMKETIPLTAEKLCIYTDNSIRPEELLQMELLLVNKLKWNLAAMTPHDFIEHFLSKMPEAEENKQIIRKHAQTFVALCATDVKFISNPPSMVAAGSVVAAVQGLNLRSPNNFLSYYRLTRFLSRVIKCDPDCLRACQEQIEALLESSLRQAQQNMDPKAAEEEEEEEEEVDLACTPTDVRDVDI
Sequence of CDK4 (Q16531 2-1140 limits assumed): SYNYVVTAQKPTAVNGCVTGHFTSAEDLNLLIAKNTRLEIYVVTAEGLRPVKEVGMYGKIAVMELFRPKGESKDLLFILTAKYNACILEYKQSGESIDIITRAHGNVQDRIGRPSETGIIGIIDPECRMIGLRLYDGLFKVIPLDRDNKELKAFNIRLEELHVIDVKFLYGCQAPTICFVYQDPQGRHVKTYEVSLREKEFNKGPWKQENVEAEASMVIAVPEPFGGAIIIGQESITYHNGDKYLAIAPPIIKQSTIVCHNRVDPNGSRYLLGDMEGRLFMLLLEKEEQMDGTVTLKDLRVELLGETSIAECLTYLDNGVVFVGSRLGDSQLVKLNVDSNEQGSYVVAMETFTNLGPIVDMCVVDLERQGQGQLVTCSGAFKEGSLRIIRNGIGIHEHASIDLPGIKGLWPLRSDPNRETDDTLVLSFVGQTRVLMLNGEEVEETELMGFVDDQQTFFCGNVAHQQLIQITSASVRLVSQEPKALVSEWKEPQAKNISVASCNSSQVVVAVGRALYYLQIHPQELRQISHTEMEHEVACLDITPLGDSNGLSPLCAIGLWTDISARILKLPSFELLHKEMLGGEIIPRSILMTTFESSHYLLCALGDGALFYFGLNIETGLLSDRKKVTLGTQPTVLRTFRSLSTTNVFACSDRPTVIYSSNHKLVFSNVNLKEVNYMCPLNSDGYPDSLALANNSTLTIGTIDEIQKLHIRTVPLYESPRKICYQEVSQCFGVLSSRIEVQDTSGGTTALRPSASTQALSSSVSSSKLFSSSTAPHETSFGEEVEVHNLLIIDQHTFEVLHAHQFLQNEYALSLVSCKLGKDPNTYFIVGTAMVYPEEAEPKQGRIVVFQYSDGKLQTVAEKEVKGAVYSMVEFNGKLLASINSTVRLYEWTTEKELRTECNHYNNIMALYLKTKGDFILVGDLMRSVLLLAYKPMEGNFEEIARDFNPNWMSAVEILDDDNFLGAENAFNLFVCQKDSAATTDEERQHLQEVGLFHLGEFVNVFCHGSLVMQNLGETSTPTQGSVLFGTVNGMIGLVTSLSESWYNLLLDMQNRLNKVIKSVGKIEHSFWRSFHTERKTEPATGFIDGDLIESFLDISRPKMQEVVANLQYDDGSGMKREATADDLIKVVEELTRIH

In general, inhibition refers to the share of the control response that was lost under treatment. As for `CNc1ccc(C(=O)Nc2ccc(N(C)C)nn2)c(NCC2CC(CNC(=O)CN3CCN(c4ccc(Nc5ncc6c(C)c(C(C)=O)c(=O)n(C7CCCC7)c6n5)nc4)CC3)C2)n1` (centres unmarked) [CPD-188, 2-(((3-((2-(4-(6-((6-acetyl-8-cyclopentyl-5-methyl-7-oxo-7,8-dihydropyrido[2,3-d]pyrimidin-2-yl)amino)pyridin-3-yl)piperazin-1-yl)acetamido)methyl)cyclobutyl)methyl)amino)-N-(6-(dimethylamino)pyridazin-3-yl)-6-(methylamino)nicotinamide], the inhibition at 0.04 µM was 50 to 80% and the inhibition at 0.2 µM lay in the range of 50 to 80%.
In turn, `CNc1ccc(C(=O)Nc2ccc(F)c(C3CC3)n2)c(NCCCCCNC(=O)CN2CCN(c3ccc(Nc4ncc5c(C)c(C(C)=O)c(=O)n(C6CCCC6)c5n4)nc3)CC2)n1` [CPD-113, 2-((5-(2-(4-(6-((6-Acetyl-8-cyclopentyl-5-methyl-7-oxo-7,8-dihydropyrido[2,3-d]pyrimidin-2-yl)amino)pyridin-3-yl)piperazin-1-yl)acetamido)pentyl)amino)-N-(6-cyclopropyl-5-fluoropyridin-2-yl)-6-(methylamino)nicotinamide] registered an inhibition at 0.04 µM of 30 to 50% and an inhibition at 0.2 µM of 50 to 80%.
Turning to `CNc1ccc(C(=O)Nc2ccc3c(n2)CCC3)c(NC2CC3(CC(NC(=O)CN4CCN(c5ccc(Nc6ncc7c(C)c(C(C)=O)c(=O)n(C8CCCC8)c7n6)nc5)CC4)C3)C2)n1` (centres unmarked) [CPD-69, 2-((6-(2-(4-(6-((6-Acetyl-8-cyclopentyl-5-methyl-7-oxo-7,8-dihydropyrido[2,3-d]pyrimidin-2-yl)amino)pyridin-3-yl)piperazin-1-yl)acetamido)spiro[3.3]heptan-2-yl)amino)-N-(6,7-dihydro-5H-cyclopenta[b]pyridin-2-yl)-6-(methylamino)nicotinamide], the inhibition at 0.04 µM lay in the range of 30 to 50% and the inhibition at 0.2 µM lay within 50 to 80%.
For `CNc1ccc(C(=O)Nc2cc(C)on2)c(NC2CC(NC(=O)CN3CCN(c4ccc(Nc5ncc6c(C)c(C(C)=O)c(=O)n(C7CCCC7)c6n5)nc4)CC3)C2)n1` (centres unmarked) [CPD-198, 2-((3-(2-(4-(6-((6-acetyl-8-cyclopentyl-5-methyl-7-oxo-7,8-dihydropyrido[2,3-d]pyrimidin-2-yl)amino)pyridin-3-yl)piperazin-1-yl)acetamido)cyclobutyl)amino)-6-(methylamino)-N-(5-methylisoxazol-3-yl)nicotinamide], in that order: less than 30% and 30 to 50%.
For `CC(=O)c1c(C)c2cnc(Nc3ccc(N4CCN(CC(=O)NCCC5CC(Nc6cc(F)ccc6C(=O)Nc6ccc(N(C)C)nn6)C5)CC4)cn3)nc2n(C2CCCC2)c1=O` (centres unmarked) [CPD-258, 2-((3-(2-(2-(4-(6-((6-Acetyl-8-cyclopentyl-5-methyl-7-oxo-7,8-dihydropyrido[2,3-d]pyrimidin-2-yl)amino)pyridin-3-yl)piperazin-1-yl)acetamido)ethyl)cyclobutyl)amino)-N-(6-(dimethylamino)pyridazin-3-yl)-4-fluorobenzamide], in that order: 30 to 50% and 50 to 80%.
`CNc1ccc(C(=O)Nc2ccc(N(C)C)nn2)c(NC2CC(OCC(=O)N3CCN(c4ccc(Nc5ncc6c(C)c(C(C)=O)c(=O)n(C7CCCC7)c6n5)nc4)CC3)C2)n1` (centres unmarked) [CPD-168, 2-((3-(2-(4-(6-((6-acetyl-8-cyclopentyl-5-methyl-7-oxo-7,8-dihydropyrido[2,3-d]pyrimidin-2-yl)amino)pyridin-3-yl)piperazin-1-yl)-2-oxoethoxy)cyclobutyl)amino)-N-(6-(dimethylamino)pyridazin-3-yl)-6-(methylamino)nicotinamide] had an inhibition at 0.04 µM of 50 to 80% and an inhibition at 0.2 µM greater than 80%.
Turning to `CC(=O)c1c(C)c2cnc(Nc3ccc(N4CCN(CC(=O)NCCCCCCCNc5nc(C)ccc5C(=O)Nc5ccc(C)c(C6CC6)n5)CC4)cn3)nc2n(C2CCCC2)c1=O` [CPD-9, 2-((7-(2-(4-(6-((6-acetyl-8-cyclopentyl-5-methyl-7-oxo-7,8-dihydropyrido[2,3-d]pyrimidin-2-yl)amino)pyridin-3-yl)piperazin-1-yl)acetamido)heptyl)amino)-N-(6-cyclopropyl-5-methylpyridin-2-yl)-6-methylnicotinamide], the inhibition at 0.04 µM was 50 to 80% and the inhibition at 0.2 µM is greater than 80%.
Turning to `CNc1ccc(C(=O)Nc2ccnc(C3CC3)c2)c(NC2CC3(CC(NC(=O)CN4CCN(c5ccc(Nc6ncc7c(C)c(C(C)=O)c(=O)n(C8CCCC8)c7n6)nc5)CC4)C3)C2)n1` (centres unmarked) [CPD-86, 2-((6-(2-(4-(6-((6-Acetyl-8-cyclopentyl-5-methyl-7-oxo-7,8-dihydropyrido[2,3-d]pyrimidin-2-yl)amino)pyridin-3-yl)piperazin-1-yl)acetamido)spiro[3.3]heptan-2-yl)amino)-N-(2-cyclopropylpyridin-4-yl)-6-(methylamino)nicotinamide], the inhibition at 0.04 µM is less than 30% and the inhibition at 0.2 µM is less than 30%.
As for `CC(=O)c1c(C)c2cnc(Nc3ccc(N4CCN(CC(=O)NC5CC6(C5)CC(Nc5nc(C#N)ccc5C(=O)Nc5cccc(C7CC7)n5)C6)CC4)cn3)nc2n(C2CCCC2)c1=O` (centres unmarked) [CPD-141, 2-((6-(2-(4-(6-((6-Acetyl-8-cyclopentyl-5-methyl-7-oxo-7,8-dihydropyrido[2,3-d]pyrimidin-2-yl)amino)pyridin-3-yl)piperazin-1-yl)acetamido)spiro[3.3]heptan-2-yl)amino)-6-cyano-N-(6-cyclopropylpyridin-2-yl)nicotinamide], the inhibition at 0.04 µM was less than 30% and the inhibition at 0.2 µM was less than 30%.
`[2H]C([2H])([2H])Nc1ccc(C(=O)Nc2cccc(C3CC3)n2)c(NC2CC3(CC(NC(=O)CN4CCN(c5ccc(Nc6ncc7c(C)c(C(C)=O)c(=O)n(C8CCCC8)c7n6)nc5)CC4)C3)C2)n1` (centres unmarked) [CPD-163, 2-((6-(2-(4-(6-((6-acetyl-8-cyclopentyl-5-methyl-7-oxo-7,8-dihydropyrido[2,3-d]pyrimidin-2-yl)amino)pyridin-3-yl)piperazin-1-yl)acetamido)spiro[3.3]heptan-2-yl)amino)-N-(6-cyclopropylpyridin-2-yl)-6-((methyl-d3)amino)nicotinamide] had an inhibition at 0.04 µM of 50 to 80% and an inhibition at 0.2 µM of 50 to 80%.
`CNc1ccc(C(=O)Nc2ncc(C)o2)c(NC2CC3(CC(NC(=O)CN4CCN(c5ccc(Nc6ncc7c(C)c(C(C)=O)c(=O)n(C8CCCC8)c7n6)nc5)CC4)C3)C2)n1` (centres unmarked) [CPD-246, 2-((6-(2-(4-(6-((6-acetyl-8-cyclopentyl-5-methyl-7-oxo-7,8-dihydropyrido[2,3-d]pyrimidin-2-yl)amino)pyridin-3-yl)piperazin-1-yl)acetamido)spiro[3.3]heptan-2-yl)amino)-6-(methylamino)-N-(5-methyloxazol-2-yl)nicotinamide] returned an inhibition at 0.04 µM of 50 to 80% and an inhibition at 0.2 µM of 50 to 80%.
For `CNc1ccc(C(=O)NC2CCC(N(C)C)C2)c(NCCCCCNC(=O)CN2CCN(c3ccc(Nc4ncc5c(C)c(C(C)=O)c(=O)n(C6CCCC6)c5n4)nc3)CC2)n1` (centres unmarked) [CPD-55, 2-((5-(2-(4-(6-((6-Acetyl-8-cyclopentyl-5-methyl-7-oxo-7,8-dihydropyrido[2,3-d]pyrimidin-2-yl)amino)pyridin-3-yl)piperazin-1-yl)acetamido)pentyl)amino)-N-(3-(dimethylamino)cyclopentyl)-6-(methylamino)nicotinamide], the inhibition at 0.04 µM was less than 30% and the inhibition at 0.2 µM was less than 30%.
Molecule `CNc1ccc(C(=O)Nc2ccon2)c(NC2CC3(CC(NC(=O)CN4CCN(c5ccc(Nc6ncc7c(C)c(C(C)=O)c(=O)n(C8CCCC8)c7n6)nc5)CC4)C3)C2)n1` (centres unmarked) [CPD-159, 2-((6-(2-(4-(6-((6-acetyl-8-cyclopentyl-5-methyl-7-oxo-7,8-dihydropyrido[2,3-d]pyrimidin-2-yl)amino)pyridin-3-yl)piperazin-1-yl)acetamido)spiro[3.3]heptan-2-yl)amino)-N-(isoxazol-3-yl)-6-(methylamino)nicotinamide] came in with an inhibition at 0.04 µM of less than 30% and an inhibition at 0.2 µM of 50 to 80%.
`CNc1ccc(C(=O)Nc2cccc(N)n2)c(NC2CC3(CC(NC(=O)CN4CCN(c5ccc(Nc6ncc7c(C)c(C(C)=O)c(=O)n(C8CCCC8)c7n6)nc5)CC4)C3)C2)n1` (centres unmarked) [CPD-180, 2-((6-(2-(4-(6-((6-acetyl-8-cyclopentyl-5-methyl-7-oxo-7,8-dihydropyrido[2,3-d]pyrimidin-2-yl)amino)pyridin-3-yl)piperazin-1-yl)acetamido)spiro[3.3]heptan-2-yl)amino)-N-(6-aminopyridin-2-yl)-6-(methylamino)nicotinamide] displayed an inhibition at 0.04 µM of less than 30% and an inhibition at 0.2 µM of 30 to 50%.
For `CNc1cccc(NC(=O)c2ccc(NC)nc2NC2CC3(CC(NC(=O)CN4CCN(c5ccc(Nc6ncc7c(C)c(C(C)=O)c(=O)n(C8CCCC8)c7n6)nc5)CC4)C3)C2)n1` (centres unmarked) [CPD-181, 2-((6-(2-(4-(6-((6-acetyl-8-cyclopentyl-5-methyl-7-oxo-7,8-dihydropyrido[2,3-d]pyrimidin-2-yl)amino)pyridin-3-yl)piperazin-1-yl)acetamido)spiro[3.3]heptan-2-yl)amino)-6-(methylamino)-N-(6-(methylamino)pyridin-2-yl)nicotinamide], in that order: 30 to 50% and 50 to 80%.
In turn, `CNc1ccc(C(=O)Nc2ccc(N(C)C)nn2)c(NC2CCC3(C2)CN(C(=O)CN2CCN(c4ccc(Nc5ncc6c(C)c(C(C)=O)c(=O)n(C7CCCC7)c6n5)nc4)CC2)C3)n1` (centres unmarked) [CPD-235, 2-((2-(2-(4-(6-((6-acetyl-8-cyclopentyl-5-methyl-7-oxo-7,8-dihydropyrido[2,3-d]pyrimidin-2-yl)amino)pyridin-3-yl)piperazin-1-yl)acetyl)-2-azaspiro[3.4]octan-6-yl)amino)-N-(6-(dimethylamino)pyridazin-3-yl)-6-(methylamino)nicotinamide] had an inhibition at 0.04 µM of less than 30% and an inhibition at 0.2 µM of 50 to 80%.
